Reference: patent publication US20220151985A1, “IMMUNOSTIMULATOR AND FOOD OR BEVERAGE FOR IMMUNOSTIMULATION” (AMINO UP CO., LTD., priority 2019, published 2022)

How the values were obtained:
[1] = tested on: mouse-derived macrophage-like cell line (RAW264); experiment: TNF-α production-inducing activity in cells; type: cell-based; settings: 24 hours
Procedure: A TNF-α production-inducing activity in a mouse-derived macrophage-like cell line (RAW264, provided: RIKEN BioResource Research Center) was investigated. Using, as test samples, AU-1833C (synthesized in Example 1), lentinan (product name: Lentinan, manufactured by FUJIFILM Wako Pure Chemical Corporation) and fucoidan (product name: Fucoidan Fucus vesiculosus-derived, manufactured by Sigma-Aldrich Co. LLC), test sample solutions were prepared so that the final concentrations of the test samples were 50, 100, and 200 μg/mL. First, all test samples were dissolved in dimethylsulfoxide (DMSO) so as to have a 1,000-fold concentration of the final concentration, and then 100-fold dilution was carried out with deionized water thereby to prepare test sample solutions having a 10-fold concentration (including 1% DMSO) of the final concentrations. […] A ratio of a TNF-α concentration in each test sample group relative to a TNF-α concentration in the non-treated group was calculated from the measured TNF-α concentrations and defined as the TNF-α production-inducing activity.

[2] = tested on: peritoneal exudate cell (PEC) count; experiment: PEC count in mice after intraperitoneal administration; type: in vivo, Slc: ddY mice; settings: intraperitoneal injection of 200 μL of 10 mg/mL, 22 hours after administration, compared with control non-treated mice (FIG. 4(a))
Procedure: The test sample AU-1833C was dissolved in DMSO so as to be 50 mg/mL and then diluted five-fold with saline (product name: Otsuka normal saline, manufactured by Otsuka Pharmaceutical Co., Ltd.) to prepare a test sample solution of 10 mg/mL (including 20% DMSO). The animals used were Slc: ddY mice (female, 6-week old) and grouped as follows. The mice purchased at the age of 5 weeks were acclimated for 5 days under a condition of free access to water and feed (regular diet (product name: CE-2, manufactured by CLEA Japan, Inc.)). […] The mice after a lapse of 22 hours from administration were sacrificed under isoflurane anesthesia, 5 mL of saline was intraperitoneally injected, the abdominal area was rubbed about 10 times, and then intraperitoneal cells were collected by collecting the saline from the abdominal cavity. Using a portion of the collected saline and a Turk's solution (product name: Turk's solution, manufactured by Wako Pure Chemical Industries, Ltd.), a concentration of PEC (cells/mL), intraperitoneally exudated nucleated cells such as white blood cells, was measured. The measured PEC concentration was multiplied by the amount of saline intraperitoneally injected (5 mL) to calculate a PEC count per mouse (cells/mouse).

TNF-α production of PEC = experiment: Amount of induced TNF-α production of PEC from treated mice when treated with LPS; type: in vivo, Slc: ddY mice; settings: PEC collected 22 hours after intraperitoneal administration, LPS 100 ng/mL for 3 hours
Procedure: The test sample AU-1833C was dissolved in DMSO so as to be 50 mg/mL and then diluted five-fold with saline (product name: Otsuka normal saline, manufactured by Otsuka Pharmaceutical Co., Ltd.) to prepare a test sample solution of 10 mg/mL (including 20% DMSO).
The animals used were Slc: ddY mice (female, 6-week old) and grouped as follows.
The mice purchased at the age of 5 weeks were acclimated for 5 days under a condition of free access to water and feed (regular diet (product name: CE-2, manufactured by CLEA Japan, Inc.)). Body weights of the mice after acclimation at the age of 6 weeks were measured and the mice were grouped based on the measured values so that there was no difference in the body weight among the groups. 200 μL of the test sample solutions or 20% DMSO saline as the non-treated group was respectively administered to the mice by intraperitoneal injection. […] Using a portion of the collected saline and a Turk's solution (product name: Turk's solution, manufactured by Wako Pure Chemical Industries, Ltd.), a concentration of PEC (cells/mL), intraperitoneally exudated nucleated cells such as white blood cells, was measured. The measured PEC concentration was multiplied by the amount of saline intraperitoneally injected (5 mL) to calculate a PEC count per mouse (cells/mouse). […]

## O=C1OCCCCCCOC(=O)c2ccccc2C(=O)OCCCCCCOC(=O)c2ccccc21 [AU-1833C, 7,8,9,10,11,12,19,20,21,22,23,24-dodecahydro-dibenzo[1,6,13,18]-tetraoxacyclooctadecine-2,5,14,17-tetrone]
[1]; RAW264 cells, 50, 100 and 200 μg/mL, ELISA, compared with control non-treated group (FIG. 3)
  TNF-α production-inducing activity (ratio of TNF-α concentration relative to non-treated group): significantly higher than that of the control non-treated group
[1]; RAW264 cells, each of 50, 100 and 200 μg/mL, ELISA (FIG. 3)
  TNF-α production-inducing activity compared with lentinan and fucoidan at the same concentration: significantly higher than those of lentinan and fucoidan at the same concentration
[2]
  PEC counts: significantly higher PEC counts
TNF-α production of PEC; compared with control non-treated mice (FIG. 4(b))
  TNF-α production amount per cell in PEC: significantly higher TNF-α production amount per cell in PEC
TNF-α production of PEC; compared with control non-treated mice (FIG. 4(c))
  PEC-derived TNF-α production amount per mouse: significantly higher PEC-derived TNF-α production amount per mouse
